# Data from paper PMC11125646 (Viruses, 2024).
# Like-named read-outs stand apart in the source and are kept apart here.
# What was measured:
# OC43 [1] = assay: Cell pretreatment assay (OC43, Vero-76); assay type: cell-based, hCoV-OC43; conditions: 2 h pre-treatment, 50, 20, 4, 0.8 μM, viability after six days
# [2] = Cytotoxicity in SK-MES-1 cells (MTT); assay type: cell-based; conditions: human
# hCoV-229E [3] = assay: microbe, parasite or virus in culture; assay type: cell-based; conditions: for EC50: Human coronavirus 229E
# hCoV OC43 = assay: Inhibition of OC43-induced cytopathogenicity in Vero-76 cells (MTT); assay type: cell-based
# in vitro = conditions: African green monkey (Cercopithecus aethiops)
# SARS-CoV-2 = assay type: cell-based
# [4] = Cytotoxicity in Vero-76 cells (MTT); conditions: African green monkey (Cercopithecus aethiops); for CC50: Vero-76 cells
# [5] = Cytotoxicity in Caco-2 cells (MTT); assay type: cell-based, human; conditions: human, MTT; for CC50 at 24 h: Caco-2, 24 h; for CC50 at 72 h: Caco-2, 72 h
# hCoV-229E [6] = tested on: hCoV-229E; design: method as in earlier work; conditions: Huh-7 cells; ref [41]; read-out: EC50, replication of HCoV-229E in Huh-7 cells; cited from earlier work
# EV-A71 = assay: Inhibition of EVA71-induced cytopathogenicity (MTT); assay type: cell-based; conditions: Enterovirus A, 50% protection from EVA71-induced cytopathogenicity
# Mpro of SARS-CoV-2 = tested on: Mpro of SARS-CoV-2; design: method as in earlier work; conditions: ref [41]; cited from earlier work
# Caco-2 cells = assay: Cytotoxicity in Caco-2 cells (MTT); assay type: cell-based, human
# OC43 [7] = assay: OC43 virucidal activity assay; assay type: cell-based, hCoV-OC43; conditions: 0 °C and 37 °C, before cell infection
# OC43 [8] = assay: OC43 yield reduction assay in Vero-76 cells; assay type: cell-based, hCoV-OC43
# OC43 [9] = assay: Adsorption assay (OC43, Vero-76); conditions: virus and cells incubated at 4 °C in presence of compound
# [10] = SK-MES-1, cinnamic acids, read-out: 229E EC50 (Table S1)
# [11] = Betacoronavirus 1, OC43, Vero 76, cinnamic acids, read-out: OC43 EC50 (Table S1)
# [12] = 50% protection of SK-MES-1 cells from 229E-induced cytopathogenicity, MTT, read-out: 229E EC50
# [13] = Betacoronavirus 1, 50% protection of Vero-76 cells from OC43-induced cytopathogenicity, MTT, read-out: OC43 EC50
molecule,measurement,setting,value
Dextran sulphate [reference compound],protection of pre-treated Vero-76 monolayers from OC43 infection,OC43 [1],failed to inhibit OC43 infection
O=C(O)/C=C/c1ccc(O)c(O)c1 [Compound A8],CC50,[2],> 100 µM
same,EC50,hCoV-229E [3]; [10],> 100 µM
same,EC50,hCoV OC43; [11],> 100 µM
same,CC50,in vitro,> 100 µM
O=C(/C=C/c1ccc(O)c(O)c1)Oc1cc(O)c2c(=O)c(O)c(-c3ccc(O)c(O)c3)oc2c1 [Compound 8],CC50 at 48 h,[2],> 100 µM
same,EC50,hCoV-229E [3]; [12],> 100 µM
same,EC50,hCoV OC43; [13],15 µM
same,CC50 at 120 h,in vitro,70 µM
same,activity against SARS-CoV-2 (words),SARS-CoV-2,showed activity
"COc1cc(/C=C/C(=O)O)cc(OC)c1O [Compound A7, sinapic acid]",CC50,"[2]; cinnamic acids, read-out: SK-MES-1 CC50 (Table S1)",> 100 µM
same,EC50,hCoV-229E [3]; [10],> 100 µM
same,activity against OC43 (words),hCoV OC43,no anti-beta coronavirus activity
same,EC50,hCoV OC43; [11],> 44 µM
same,activity against SARS-CoV-2 (words),SARS-CoV-2,no anti-beta coronavirus activity
same,CC50,[4],44 µM
O=C(O)/C=C/c1ccccc1O [Compound A4],EC50,hCoV OC43; [11],> 100 µM
same,CC50,in vitro,> 100 µM
COc1cc(/C=C/C(=O)O)ccc1O [ferulic acid],activity against 229E,hCoV-229E [3],No inhibitory effect
same,activity against OC43 (words),hCoV OC43,No inhibitory effect
same,activity against SARS-CoV-2 (words),SARS-CoV-2,No inhibitory effect
O=C(/C=C/c1ccc2c(c1)OCO2)Oc1cc(O)c2c(=O)c(O)c(-c3ccc(O)c(O)c3)oc2c1 [Compound 6],CC50 at 48 h,[2],33 µM
same,EC50,hCoV-229E [3]; [12],> 33 µM
same,EC50,hCoV OC43; [13],2.4 ± 0.56 µM
same,CC50 at 120 h,in vitro,30 µM
COc1ccc(/C=C/C(=O)O)cc1OC [Compound A1],EC50,hCoV OC43; [11],> 100 µM
same,CC50,in vitro,> 100 µM
O=C(/C=C/c1ccc(O)cc1)Oc1cc(O)c2c(=O)c(O)c(-c3ccc(O)c(O)c3)oc2c1 [Compound 3],activity against OC43 (words),hCoV OC43,no evidence of activity
same,EC50,hCoV OC43; [13],> 60 µM
same,CC50 at 120 h,in vitro,60 µM
O=C(/C=C/c1cccc(O)c1)Oc1cc(O)c2c(=O)c(O)c(-c3ccc(O)c(O)c3)oc2c1 [Compound 5],EC50,hCoV OC43; [13],> 75 µM
same,CC50 at 120 h,in vitro,75 µM
"O=c1c(O)c(-c2ccc(O)c(O)c2)oc2cc(O)cc(O)c12 [Quercetin, reference compound]",CC50 at 48 h,"[2]; mock-infected SK-MES-1 cells, 48 h post-treatment, MTT, read-out: SK-MES-1 CC50",> 100 µM
same,EC50,hCoV-229E [3]; [12],51 µM
same,CC50 at 24 h,[5],88.7 µM
same,CC50 at 72 h,[5],61 µM
same,activity against OC43 (words),hCoV OC43,no activity
same,EC50,hCoV OC43; [13],> 20 µM
same,activity against OC43 (words),hCoV OC43; listed as quercetin,no anti-beta coronavirus activity
same,EC50,hCoV-229E [6],4.88 µM
same,cytotoxicity against Vero-76 cells,Vero-76 cells,No cytotoxicity was detected
same,activity against SARS-CoV-2 (words),SARS-CoV-2,no activity
same,activity against SARS-CoV-2 (words),SARS-CoV-2; listed as quercetin,no anti-beta coronavirus activity
same,EC50,EV-A71,> 100 µM
same,CC50 at 24 h,[4],> 100 µM
same,CC50 at 72 h,[4],100 µM
same,CC50 at 120 h,[4],20 µM
same,IC50,Mpro of SARS-CoV-2,6.79 µM
COc1cc(/C=C/C(=O)O)ccc1O [Compound A2],EC50,hCoV OC43; [11],> 100 µM
same,CC50,in vitro,> 100 µM
"CCOC(=O)/C=C/[C@H](C[C@@H]1CCNC1=O)NC(=O)[C@@H](CC(=O)[C@@H](NC(=O)c1cc(C)on1)C(C)C)Cc1ccc(F)cc1 [Rupintrivir, reference compound]",CC50,in vitro,> 100 µM
same,EC50,EV-A71,0.07 µM
COc1ccc(/C=C/C(=O)Oc2cc(O)c3c(=O)c(O)c(-c4ccc(O)c(O)c4)oc3c2)cc1OC [Compound 1],activity against OC43 (words),hCoV OC43,no activity
same,EC50,hCoV OC43; [13],> 54.7 µM
same,CC50 at 120 h,in vitro,54.7 µM
same,activity against SARS-CoV-2 (words),SARS-CoV-2,no activity
COc1cc(/C=C/C(=O)Oc2cc(O)c3c(=O)c(O)c(-c4ccc(O)c(O)c4)oc3c2)cc(OC)c1O [Compound 7],CC50 at 48 h,[2],> 100 µM
same,EC50,hCoV-229E [3]; [12],> 100 µM
same,CC50 at 24 h,[5],> 100 µM
same,CC50 at 72 h,[5],70 µM
same,cytotoxicity against Caco-2 cells,Caco-2 cells; 24 h,No relevant cytotoxicity
same,cytotoxicity against Caco-2 cells,Caco-2 cells; 72 h,a slight increase
same,virus titers of treated vs untreated samples (virucidal activity),OC43 [7],did not significantly differ
same,selectivity index,hCoV OC43,15
same,EC50,hCoV OC43; [13],6.5 ± 0.7 µM
same,CC50 at 24 h,in vitro,> 100 µM
same,CC50 at 72 h,in vitro,> 100 µM
same,CC50 at 120 h,in vitro,100 µM
same,activity against SARS-CoV-2 (words),SARS-CoV-2,showed activity
same,EC50,EV-A71,> 100 µM
same,reduction in the OC43 titer,"OC43 [8]; 4 µM, Vero-76, m.o.i. 0.1",2 logs
same,reduction in the viral titer,"OC43 [8]; 50, 20, 4 and 0.8 µM, Vero-76",significant dose-dependent reduction
same,block of OC43 viral binding (adsorption),OC43 [9],efficiently able to block OC43 viral binding
same,protection of pre-treated Vero-76 monolayers from OC43 infection,OC43 [1],failed to inhibit OC43 infection
COc1cc(/C=C/C(=O)Oc2cc(O)c3c(=O)c(O)c(-c4ccc(O)c(O)c4)oc3c2)ccc1O [Compound 2],EC50,hCoV OC43; [13],> 11.4 µM
same,CC50 at 120 h,in vitro,11.4 µM
"CCC(CC)COC(=O)[C@H](C)N[P@](=O)(OC[C@H]1O[C@@](C#N)(c2ccc3c(N)ncnn23)[C@H](O)[C@@H]1O)Oc1ccccc1 [Remdesivir, reference compound]",CC50 at 48 h,[2],> 100 µM
same,EC50,hCoV-229E [3]; [12],5 ± 1 µM
same,CC50 at 120 h,in vitro,> 100 µM
O=C(O)/C=C/c1ccc(O)cc1 [Compound A3],EC50,hCoV OC43; [11],> 100 µM
same,CC50,[4],> 100 µM
"CCN(CCO)CCCC(C)Nc1ccnc2cc(Cl)ccc12 (stereo not drawn) [Hydroxychloroquine, reference compound]",EC50,hCoV OC43; [13],1.9 ± 0.8 µM
same,CC50 at 120 h,in vitro,60 µM
O=C(O)/C=C/c1cccc(O)c1 [Compound A5],EC50,hCoV OC43; [11],> 100 µM
same,CC50,in vitro,> 100 µM
O=C(/C=C/c1ccccc1O)Oc1cc(O)c2c(=O)c(O)c(-c3ccc(O)c(O)c3)oc2c1 [Compound 4],EC50,hCoV OC43; [13],> 78 µM
same,CC50 at 120 h,in vitro,78 µM
